{"source": "patent US7098364B2", "about": "“Phenylethanolamine compounds as β2-receptor agonists, and methods of use and preparation thereof” (Shenyang Pharmaceutical University, priority 2001, dated 2006)"}
{"system": "isolated guinea pig trachea strips", "assay": "Antagonistic effect on histamine-induced bronchoconstriction in isolated guinea pig trachea strips", "type": "cell-based", "conditions": "trachea strips contracted by histamine (10^-6-10^-4 M) to 50% of maximum contraction; compounds at 10^-6 or 3×10^-4 M; Krebs-Hensleit solution, 37° C.", "description": "The antagonistic effects of bronchoconstrtriction induced by histamine of the compounds of the present invention were evaluated by isolated guinea pig trachea strips.\nApparatus: polygrapher recorder, strain gauge transducer\nConditions: Krebs-Hensleit solution; gas mixture(95% O2, 5% CO2); Paper speed: 4 mm/min; 37° C.\nAnimals: guinea pigs (Harley, purchased from the Experimental Animal Center of China Medical University) of either sex weighting 350–500 g were used.\nReagent: Histamines phosphate solution(10^−6–10^−4M)\nMethod: Guinea pigs were sacrificed and the trachea strips(2 cm×3 mm) were prepared; the preparation was then mounted under a testing tension of 2 g in an organ bath containing 10 mL Kebs-Hensleits solution at 37° C. and superfused with the gas mixture mentioned above and the preparation was allowed to equilibrate for 2 h before the addition of histamine. When the tension of trachea strips reached 50% of the maximum contraction, the tested compounds was added to bath, and the antagonistic effect (represented as relaxing rate) was calculated as below: Relaxing rate=(Contraction intensity after histamine addition-Contraction intensity after tested compounds addition)/[…]×100%", "units": {"Relaxing rate (%)": "%"}}
{"smiles": "CC(C)NC(CO)c1cc(Cl)c(N)c(C(F)(F)F)c1.Cl", "note": "(stereo not drawn)", "Relaxing rate (%)": 52.5}
{"smiles": "Cl.Nc1c(Br)cc(C(CO)NC2CC2)cc1C(F)(F)F", "note": "(stereo not drawn)", "Relaxing rate (%)": 10.2}
{"smiles": "Cl.N#Cc1cc(C(CO)NC2CCC2)cc(Cl)c1N", "note": "(stereo not drawn)", "Relaxing rate (%)": 36.7}
{"smiles": "CC(C)NC(CO)c1cc(Br)c(N)c(C#N)c1.Cl", "note": "(stereo not drawn)", "Relaxing rate (%)": 77.6}
{"smiles": "Cl.Cl.N#Cc1cc(C(CO)NC2CCC2)cc(Br)c1N", "note": "(stereo not drawn)", "Relaxing rate (%)": 30.8}
{"smiles": "Cl.N#Cc1cc(C(CO)NC2CCC2)ccc1N", "note": "(stereo not drawn)", "Relaxing rate (%)": 18.9}
{"smiles": "CC(C)NC(CO)c1ccc(N)c(C#N)c1.Cl", "note": "(stereo not drawn)", "Relaxing rate (%)": 60.3}
{"smiles": "Cl.Nc1c(Br)cc(C(CO)NC2CCC2)cc1C(F)(F)F", "note": "(stereo not drawn)", "Relaxing rate (%)": 12.9}
{"smiles": "CC(C)(CO)NC(CO)c1cc(Cl)c(N)c(C(F)(F)F)c1.Cl", "note": "(stereo not drawn)", "Relaxing rate (%)": 85.1}
{"smiles": "CC(C)(CO)NC(CO)c1cc(Br)c(N)c(C(F)(F)F)c1.Cl", "note": "(stereo not drawn)", "Relaxing rate (%)": 128.2}
{"smiles": "CC(C)(CO)NC(CO)c1cc(Cl)c(N)c(C#N)c1.Cl.Cl", "note": "(stereo not drawn)", "Relaxing rate (%)": 15.3}
{"smiles": "CC(C)(C)NC(CO)c1ccc(N)c(C(F)(F)F)c1.Cl", "note": "(stereo not drawn)", "Relaxing rate (%)": 55.6}
{"smiles": "Cl.Cl.N#Cc1cc(C(CO)NC2CC2)ccc1N", "note": "(stereo not drawn)", "Relaxing rate (%)": 15.7}
{"smiles": "CC(C)(CO)NC(CO)c1cc(Br)c(N)c(C#N)c1.Cl", "note": "(stereo not drawn)", "Relaxing rate (%)": 89.6}
{"smiles": "CC(C)(CO)NC(CO)c1ccc(N)c(C#N)c1.Cl", "note": "(stereo not drawn)", "Relaxing rate (%)": 65.3}
{"smiles": "Br.CC(C)(C)NC(CO)c1cc(Cl)c(N)c(C(F)(F)F)c1", "note": "(stereo not drawn)", "Relaxing rate (%)": 165.9}
{"smiles": "CC(C)NC(CO)c1cc(Cl)c(N)c(C#N)c1.Cl.Cl", "note": "(stereo not drawn) [drawing 7]", "Relaxing rate (%)": 69.2}
{"smiles": "CC(C)NC(CO)c1cc(Cl)c(N)c(C#N)c1.Cl.Cl", "note": "(stereo not drawn) [drawing 20]", "Relaxing rate (%)": 70.5}
